Measurements taken from patent publication US20050003371A1, “Modified nucleotides and methods of labeling nucleic acids” (Stratagene, priority 2002, published 2005).
Entries after “also recorded” stand apart in the source; their conditions may differ.

Tests used:
[1] = molecular target: T1, terminal deoxynucleotide transferase (TdT) (Bos taurus, UniProt P06526); assay: Tailing / 3'-end labeling of a 12-mer oligonucleotide with terminal transferase (Procedure 1); format: biochemical; settings: for number of contiguous modified bases added to the 3' terminus: TdT-catalyzed end labeling
T1 construct: purchased Stratagene (La Jolla, Calif.)
T1 sequence (P06526 whole entry): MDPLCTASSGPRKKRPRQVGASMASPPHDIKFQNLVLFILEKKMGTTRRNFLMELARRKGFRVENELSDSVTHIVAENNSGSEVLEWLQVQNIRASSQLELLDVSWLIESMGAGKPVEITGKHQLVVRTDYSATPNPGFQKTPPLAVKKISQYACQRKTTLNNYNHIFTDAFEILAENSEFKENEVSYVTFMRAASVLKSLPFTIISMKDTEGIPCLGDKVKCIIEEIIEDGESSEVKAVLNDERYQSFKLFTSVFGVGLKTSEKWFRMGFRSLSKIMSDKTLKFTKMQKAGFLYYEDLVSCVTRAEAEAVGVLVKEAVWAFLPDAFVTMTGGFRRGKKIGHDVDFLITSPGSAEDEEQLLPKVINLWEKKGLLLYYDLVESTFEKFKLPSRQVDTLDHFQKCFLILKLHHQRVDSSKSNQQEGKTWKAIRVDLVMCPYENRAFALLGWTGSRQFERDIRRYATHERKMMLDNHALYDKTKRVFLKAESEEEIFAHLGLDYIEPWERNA
Protocol: A 12-mer oligonucleotide (5′-[…]-3′; SEQ ID NO: 1) was 5′ labeled with ^32P ATP and T4 Polynucleotide Kinase according to established methods (Roychoudhury and Wu, 1980; Sambrook, Fritch, and Maniatis, 1989). Aliquots of the mixture containing 10 ng of kinased oligo were combined with 100 pmol of fluorescein 12-dUTP and 5 units of terminal deoxynucleotide transferase (TdT) in 100 mM potassium cacodylate, 2 mM CoCl2, pH 7.2 (final volume of 10 μL). […] The reactions were quenched by the addition of loading dye and 4 μL aliquots were loaded onto a sequencing gel (14″×17″, poured with 20% acrylamide/7M urea/1×TBE), electrophoresed for 3 hours at 55 watts/[…] and exposed to X-ray film.

[2] = molecular target: T2, Taq DNA polymerase (Thermus aquaticus, UniProt P19821); assay: Polymerase primer extension assay, 12-mer primer/18-mer template (Procedure 2); format: biochemical; settings: template with maximum four dTTP/dUTP sites
T2 construct: purchased Stratagene (La Jolla, Calif.)
T2 sequence (P19821 whole entry): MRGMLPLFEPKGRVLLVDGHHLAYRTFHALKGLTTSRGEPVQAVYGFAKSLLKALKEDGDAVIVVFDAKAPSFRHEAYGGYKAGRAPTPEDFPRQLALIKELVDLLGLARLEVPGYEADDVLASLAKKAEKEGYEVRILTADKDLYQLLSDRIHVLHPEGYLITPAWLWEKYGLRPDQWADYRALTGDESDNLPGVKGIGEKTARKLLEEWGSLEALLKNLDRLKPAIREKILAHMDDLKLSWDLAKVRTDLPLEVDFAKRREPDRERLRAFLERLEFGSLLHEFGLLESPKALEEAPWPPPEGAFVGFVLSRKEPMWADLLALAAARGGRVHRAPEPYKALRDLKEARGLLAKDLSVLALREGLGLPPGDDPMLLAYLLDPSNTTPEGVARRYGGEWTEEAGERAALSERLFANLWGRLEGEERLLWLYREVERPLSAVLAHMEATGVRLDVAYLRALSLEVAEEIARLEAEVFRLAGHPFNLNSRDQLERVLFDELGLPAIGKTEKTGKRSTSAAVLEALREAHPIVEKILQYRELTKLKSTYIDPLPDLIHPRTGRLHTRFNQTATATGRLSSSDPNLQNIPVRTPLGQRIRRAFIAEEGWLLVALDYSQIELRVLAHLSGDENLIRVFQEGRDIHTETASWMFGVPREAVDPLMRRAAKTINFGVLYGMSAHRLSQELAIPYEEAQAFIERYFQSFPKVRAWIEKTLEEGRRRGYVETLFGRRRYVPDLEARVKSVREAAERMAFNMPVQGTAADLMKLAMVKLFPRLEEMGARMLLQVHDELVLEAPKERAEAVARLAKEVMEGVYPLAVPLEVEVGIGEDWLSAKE
Protocol: (§1) Aliquots containing 10 ng of the kinased 12-mer described in procedure 1 were combined with 40 ng of an 18-mer oligonucleotide (5′-[…]-3′; SEQ ID NO: 2) in 8 μL of T-7 buffer (20 mM MgCl2, 50 mM NaCl, 40 mM Tris, pH 7.5) or Klenow buffer (5 mM MgCl2, 4 mM DTT, 35 mM Tris, pH 7.5). To each reaction was added 1 μL of a solution containing 100 μM each of dATP and fluorescein 12-dUTP. The reaction contents were heated to 95° C. for 2 minutes and allowed to cool to room temperature. Five units (1 μL) of the appropriate polymerase were added and the reaction mixtures were incubated at 37° C. for 10 minutes. Control reactions were run which contained no polymerase. Polymerase activity was terminated by addition of 3 μL of 1M EDTA and the extension products were separated by electrophoresis using a 20% acrylamide gel and the results visualized by autoradiography. A measurement of the degree of polymerase-catalyzed primer extension obtained in the presence of modified nucleotide analogs according to the invention can be determined by substituting the modified nucleotide (1 μL of 100 μM) for fluorescein 12-dUTP in procedure 2.

[3] = molecular target: T3, Klenow polymerase (Escherichia coli, UniProt P00582); assay: Polymerase primer extension assay (Procedure 2); format: biochemical, E. coli; settings: Procedure 2, results not shown
T3 construct: Incorporation results using SAc-dUTP and the Klenow fragment of DNA polymerase I following Procedure 3
T3 sequence (P00582 324-928): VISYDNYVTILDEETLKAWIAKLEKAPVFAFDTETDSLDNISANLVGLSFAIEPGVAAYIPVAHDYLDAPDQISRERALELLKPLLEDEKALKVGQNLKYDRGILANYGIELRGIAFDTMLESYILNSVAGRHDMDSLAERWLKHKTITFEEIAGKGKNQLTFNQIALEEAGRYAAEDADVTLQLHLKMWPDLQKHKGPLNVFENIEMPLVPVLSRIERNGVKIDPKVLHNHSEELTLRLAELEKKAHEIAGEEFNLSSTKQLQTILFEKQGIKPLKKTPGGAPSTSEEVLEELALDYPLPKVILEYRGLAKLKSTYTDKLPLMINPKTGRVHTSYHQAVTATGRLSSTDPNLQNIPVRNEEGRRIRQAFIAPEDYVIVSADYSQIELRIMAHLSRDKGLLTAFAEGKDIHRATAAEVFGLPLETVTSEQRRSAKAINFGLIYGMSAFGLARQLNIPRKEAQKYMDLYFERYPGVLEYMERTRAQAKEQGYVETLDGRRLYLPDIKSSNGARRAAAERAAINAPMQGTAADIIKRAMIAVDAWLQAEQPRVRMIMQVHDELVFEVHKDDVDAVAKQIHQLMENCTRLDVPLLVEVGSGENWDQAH
Protocol: as §1

[4] = molecular target: T7 DNA polymerase (Escherichia phage T7, UniProt P00581); settings: Procedure 2; for incorporation into DNA by T7 DNA polymerase in primer extension: template with maximum four dTTP/dUTP sites
Sequence of T7 DNA polymerase (P00581 whole entry): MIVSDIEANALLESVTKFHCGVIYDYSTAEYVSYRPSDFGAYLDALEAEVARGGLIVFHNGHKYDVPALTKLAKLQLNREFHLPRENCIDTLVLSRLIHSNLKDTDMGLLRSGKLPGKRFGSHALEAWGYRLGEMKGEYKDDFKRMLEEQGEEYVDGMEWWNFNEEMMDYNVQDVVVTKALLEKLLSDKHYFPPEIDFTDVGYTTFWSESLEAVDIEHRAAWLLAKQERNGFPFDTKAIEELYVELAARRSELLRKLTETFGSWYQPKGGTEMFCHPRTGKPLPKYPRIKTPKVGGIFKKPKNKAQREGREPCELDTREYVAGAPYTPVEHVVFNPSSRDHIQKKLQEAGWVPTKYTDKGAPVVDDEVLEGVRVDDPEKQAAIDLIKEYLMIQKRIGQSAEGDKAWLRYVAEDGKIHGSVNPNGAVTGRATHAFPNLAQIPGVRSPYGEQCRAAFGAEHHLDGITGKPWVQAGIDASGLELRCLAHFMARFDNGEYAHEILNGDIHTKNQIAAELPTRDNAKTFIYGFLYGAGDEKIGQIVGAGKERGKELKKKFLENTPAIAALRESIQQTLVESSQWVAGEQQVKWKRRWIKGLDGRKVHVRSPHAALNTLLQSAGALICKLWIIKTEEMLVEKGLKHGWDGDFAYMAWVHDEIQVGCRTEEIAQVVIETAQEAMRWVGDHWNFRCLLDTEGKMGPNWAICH
Sequence of T7 DNA polymerase (P0AA25 2-109, further chain): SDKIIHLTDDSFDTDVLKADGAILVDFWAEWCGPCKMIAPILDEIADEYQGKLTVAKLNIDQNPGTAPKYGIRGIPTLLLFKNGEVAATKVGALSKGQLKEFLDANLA
Protocol: as §1

[5] = tested on: exonuclease free Klenow polymerase; settings: Procedure 2, results not shown
Protocol: as §1

Substance	number of contiguous modified bases added to the 3' terminus [1]	incorporation into DNA by Taq DNA polymerase in primer extension [2]	accepted as substrate by Klenow polymerase in primer extension [3]	incorporation into DNA by T7 DNA polymerase in primer extension [4]	accepted as substrate by exonuclease free Klenow polymerase in primer extension [5]	substrate for TdT in oligonucleotide tailing / 3'-end labeling ([1]; Procedure 1, 20% denaturing PAGE, autoradiography)	substrate efficiency with T7 polymerase relative to Taq polymerase ([4]; smaller fragments observed in T7 reaction)
maleimido-methylcyclohexane-dUTP [MCC-dUTP]	up to 5 bases	essentially the same degree of incorporation as PDP-dUTP	accepted as a substrate	essentially the same degree of incorporation as PDP-dUTP	accepted as a substrate		
pyridine dithiopropanoate-dUTP [PDP-dUTP]	up to 10 bases	incorporated into DNA; also recorded: incorporated at several sites		incorporated into DNA		substrate for TdT	reduced substrate efficiency with T7 polymerase compared to Taq polymerase
